Assays:
CYP4A (CYP4A11) = target: T1, CYP4A (CYP4A11) (Homo sapiens, UniProt Q02928); assay: CYP4A activity inhibition, Luciferin-4A luminescence with CYP4A expressing HepG2 cell lysate; type: biochemical; conditions: FIG. 1: all compounds at 5 μM; FIG. 2: by concentration; compared with HET0016
T1 construct: expressed in transfected cells; host or cells: HepG2 (human liver cell line), RIPA lysate
T1 sequence (Q02928 5-519): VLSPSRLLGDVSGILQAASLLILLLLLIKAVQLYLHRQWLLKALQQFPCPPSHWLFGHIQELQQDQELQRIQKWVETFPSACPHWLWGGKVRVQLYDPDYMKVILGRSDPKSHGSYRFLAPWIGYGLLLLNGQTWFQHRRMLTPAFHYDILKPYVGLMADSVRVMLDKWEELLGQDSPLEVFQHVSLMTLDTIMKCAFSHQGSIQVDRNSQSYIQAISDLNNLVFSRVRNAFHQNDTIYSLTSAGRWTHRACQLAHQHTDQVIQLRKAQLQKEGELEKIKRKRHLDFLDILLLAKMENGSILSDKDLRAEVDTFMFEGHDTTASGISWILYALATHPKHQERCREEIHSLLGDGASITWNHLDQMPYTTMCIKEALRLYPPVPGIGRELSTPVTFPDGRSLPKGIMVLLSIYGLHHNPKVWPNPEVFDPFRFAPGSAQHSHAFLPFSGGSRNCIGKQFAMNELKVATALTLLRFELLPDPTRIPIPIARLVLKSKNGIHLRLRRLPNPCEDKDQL
Description: CYP4A11 DNA (GenBank: S67580.1) was transfected into HepG2 cells, a human liver cell line, and cultured in an incubator for 24 hours so that the protein was expressed. After that, cells were pulverized by adding RIPA buffer (20 mM Tris-HCl (pH 7.5), 150 mM NaCl, 1 mM Na2EDTA, 1 mM EGTA, 1% NP-40, 1% sodium deoxycholate, 2.5 mM sodium pyrophosphate, 1 mM b-glycerophosphate, 1 mM Na3VO4, 1 μg/ml leupeptin) to extract proteins, and then CYP4A activity experiment and compound screening were performed as follows. […]
After putting it in the NADPH Regeneration system (20× sol.A, 100× sol.B in water, Cal. Number: D399, Thermo Fisher SCIENTIFIC), leave it at room temperature for 1 hour to allow the CYP4A reaction to occur sufficiently, and CYP4A reaction is finished by adding Luciferin Detection reagent, and induce a luminescence reaction to occur, and the reaction was carried out at room temperature for 20 minutes. The degree of inhibition of CYP4A activity was measured by comparing the luminescence values from each well with a microplate reader.

HepG2 cells [1] = assay: Glucose absorption promoting effect (2-NBDG uptake) under ER stress; type: cell-based, human; conditions: 5 μM compound
Description: HepG2 cells, a human liver cell line, were cultured in a high-glucose DMEM (Dulbecco's modified Eagle's medium, glucose 25 mM) medium in the presence of 10% fetal bovine serum (FBS), and then glucose uptake experiments were performed as follows.
First, HepG2 cells were grown to 1×10^4 cells/well in a 96-well plate (black, clear bottom culture plate) by the above method, and then 5 μM of each compound screened in Example 1 was added and incubated for 6 hours. Here, thapsigargin or tunicamycin, which induces endoplasmic reticulum stress, was added to hepatocytes, and then placed in an incubator at 37° C. for 24 hours to react. After that, insulin and 2-NBDG (2-(N-(7-Nitrobenz-2-oxa-1,3-diazol-4-yl)Amino)-2-Deoxyglucose) were added and reacted in an incubator at 37° C. for 3 hours, and after washing with PBS (phosphate buffered saline), fluorescence was measured with a microplate reader (Excitation: 488 nm, Emission: 508 nm).

HepG2 cells [2] = assay: Fat accumulation inhibitory activity in hepatocytes (palmitate, Nile-Red); type: cell-based, human; conditions: 5 μM compound; palmitate 72 hours; compared with positive control HET0016
Description: After culturing HepG2 cells, a human liver cell line, in a high-concentration DMEM medium (Dulbecco's modified Eagle's medium, glucose 25 mM) containing 10% fetal bovine serum (FBS), an experiment was performed to measure fat accumulation by the following method.
First, HepG2 cells were grown to 5×10^3 cells/well in a 96-well plate (black, clear bottom culture plate) by the above method, and 5 μM of each compound screened in Example 1 was added thereto, followed by incubation for 6 hours. Here, palmitate, a fatty acid that induces fat accumulation in hepatocytes, is added, and then placed in an incubator at 37° C. for 72 hours to react. Thereafter, 4% paraformaldehyde was added and reacted at room temperature for 15 minutes to fix, and then Nile-Red solution was added, light was blocked, and reaction was performed at 37° C. for 10 minutes. After the reaction time, fluorescence was measured with a microplate reader (Excitation: 530 nm, Emission: 635 nm).

HepG2 cells [3] = assay: Active oxygen (ROS) scavenging ability under ER stress (H2DCFDA); type: cell-based, human; conditions: 5 μM compound; for amount of ROS: Thapsigargin or Tunicamycin; for inhibition of ROS production and removal of ROS: Thapsigargin-treated group, compared with HET0016
Description: After culturing HepG2 cells, a human liver cell line, in high-glucose DMEM medium (Dulbecco's modified Eagle's medium, glucose 25 mM) in the presence of 10% fetal bovine serum (FBS), an experiment was performed to measure the ability to remove reactive oxygen species by the following method.
First, HepG2 cells were grown to 1×10^4 cells/well in a 96-well plate (black, clear bottom culture plate) by the above method, and then 5 μM of each compound screened in Example 1 was added and incubated for 6 hours. After adding thapsigargin or tunicamycin to induce endoplasmic reticulum stress, the reaction was put in an incubator for 24 hours. After that, 5 μM H2DCFDA (cell-permeant 2′,7′-dichlorodihydrofluorescein diacetate) was added and reacted for 30 minutes in an incubator at 37° C. Thereafter, after washing with PBS, it was placed in an incubator at 37° C. for 30 minutes and waited for luminescence to occur. Thereafter, fluorescence was measured with a microplate reader (Excitation: 488 nm, Emission: 508 nm).

[4] = Thapsigargin or Tunicamycin, compared with positive control HET0016
[5] = Tunicamycin-treated group, compared with HET0016

SMILES: CC(=O)Nc1ccc(S(=O)(=O)N2CCN(c3ccnc4cc(Cl)ccc34)CC2)cc1 [#18-1, N-(4-((4-(7-chloroquinolin-4-yl)piperazin-1-yl)sulfonyl)phenyl)acetamide]
- CYP4A inhibitory ability (luminescence) (CYP4A (CYP4A11)): particularly excellent among the selected compounds
- glucose absorption promoting effect (2-NBDG fluorescence) (HepG2 cells [1]; [4]): significant to the same or higher degree than that of the positive control group (HET0016)
- glucose absorption promoting effect (2-NBDG fluorescence) (HepG2 cells [1]; [5]): more effective in promoting glucose absorption than the known HET0016 compound
- fat accumulation in liver cells (Nile-Red fluorescence) (HepG2 cells [2]): suppressed to a degree similar to that of the positive control group (HET0016)
- amount of ROS (HepG2 cells [3]): significantly decreased
- inhibition of ROS production and removal of ROS (HepG2 cells [3]): better inhibition of ROS production and removal of ROS than HET0016

SMILES: CC(=O)Nc1ccc(S(=O)(=O)N2CCN(c3cc(C)nc4ccccc34)CC2)cc1 [#18-2, N-(4-((4-(2-methylquinolin-4-yl)piperazin-1-yl)sulfonyl)phenyl)acetamide]
- CYP4A inhibitory ability (luminescence) (CYP4A (CYP4A11)): particularly excellent among the selected compounds
- glucose absorption promoting effect (2-NBDG fluorescence) (HepG2 cells [1]; [4]): significant to the same or higher degree than that of the positive control group (HET0016)
- glucose absorption promoting effect (2-NBDG fluorescence) (HepG2 cells [1]; [5]): more effective in promoting glucose absorption than the known HET0016 compound
- fat accumulation in liver cells (Nile-Red fluorescence) (HepG2 cells [2]): suppressed to a degree similar to that of the positive control group (HET0016)
- amount of ROS (HepG2 cells [3]): significantly decreased
- inhibition of ROS production and removal of ROS (HepG2 cells [3]): better inhibition of ROS production and removal of ROS than HET0016
